System: adults with moderate-to-severe chronic pain associated with osteoarthritis (OA) of the knee or hip
Experiment: FACT OA1 (NCT03161093, R475-OA-1611) Phase 3 trial, WOMAC pain and physical function
Format: in vivo, human
Conditions: FACT OA1, Week 16; fasinumab 1 mg Q4W, naproxen 2 × 500 mg/day
Excerpt: NCT02683239 (R475-PN-1523, or “FACT LTS”), NCT03161093 (R475-OA-1611, or “FACT OA1”), and NCT03304379 (R475-OA-1688, or “FACT OA2”) each were Phase 3 trials evaluating fasinumab in adults with moderate-to-severe chronic pain associated with osteoarthritis (OA) of the knee or hip. All three of these trials enrolled patients with OA of the knee or hip who had inadequate pain relief with acetaminophen and were intolerant to or had inadequate pain relief with opioids, or were unwilling or unable to take opioids. Complete inclusion and exclusion criteria for the trials are described at clinicaltrials.gov/ct2/show/NCT03161093, clinicaltrials.gov/ct2/show/NCT03304379, and clinicaltrials.gov/ct2/show/NCT02683239.
FACT OA1 and FACT OA2 assessed the efficacy of fasinumab in comparison to nonsteroidal anti-inflammatory drugs (NSAIDs; naproxen, diclofenac, or celecoxib) for treatment of OA. FACT OA1 includes results from a total of 1,801 patients randomized to one of four treatment arms: fasinumab 1 mg SC once every 8 weeks (Q8W) (n=304), fasinumab 1 mg SC once every 4 weeks (Q4W) (n=639), naproxen 500 mg twice daily (n=644), or placebo (n=214). In FACT OA2, patients were randomized into one of six treatment groups: fasinumab 1 mg SC once every 4 weeks (Q4W), fasinumab 3 mg SC once every 4 weeks (Q4W), fasinumab 6 mg SC once every 8 weeks (Q8W), celecoxib 200 mg once daily, diclofenac 75 mg twice daily, or placebo. While the FACT OA2 trial was still ongoing, enrollment into the fasinumab 3 mg Q4W and 6 mg Q8W groups was stopped for safety considerations; patients enrolled in those dose regimens discontinued study drug and entered the post-treatment follow-up period.
Fasinumab patients in both trials also reported improvements in their pain and physical function (WOMAC score) compared to those treated with the highest-approved prescription doses of NSAIDS.

COc1ccc2cc([C@H](C)C(=O)O)ccc2c1 [Naproxen, naproxen, reference compound] was tested, and the “WOMAC pain, change from baseline” value was −33%, the “WOMAC pain, change from baseline (score, in brackets)” value was “(−2.13)” and the “WOMAC physical function, change from baseline” value was −31%. The “WOMAC physical function, change from baseline (score, in brackets)” value was “(−1.98)”.

Reference: patent US20240002491A1, “METHODS FOR SELECTING PATIENTS FOR TREATMENT WITH AN NGF ANTAGONIST” (Regeneron Pharmaceuticals, Inc., priority 2022, published 2024)
